Data taken from patent US20090318502A1, “Pharmaceutical Compositions Comprising a Hypoglycemic Agent and Methods of Using Same” (INTRANASAL THERAPEUTICS, INC., priority 2006, published 2009).

Assays:
[1] = Storage stability and appearance of intranasal repaglinide formulations; format: physicochemical; settings: solution pH
Description: In one embodiment, a composition of the invention comprises at least 85%, at least 87%, at least 90%, at least 92%, at least 95%, at least 97%, or at least 99% of the original hypoglycemic agent (e.g., repaglinide) after storage (closed or open vessel) at 40° C. and 75% relative humidity for a period of at least 1 week, at least 2 weeks, at least 3 weeks, at least 4 weeks, at least 6 weeks, at least 8 weeks, at least 10 weeks, at least 15 weeks, at least 20 weeks, at least 25 weeks, at least 30 weeks, at least 35 weeks, at least 40 weeks, at least 45 weeks, or at least 50 weeks The formulations described in Table 1 below have shown good stability for a period of about one month. In particular, the formulations described in Example 1 below have shown no precipitation and have remained clear and colorless for a period of about one month.

[2] = Solubility of repaglinide in formulation vehicles; format: physicochemical; settings: in 100% methoxy-polyethylene glycol, 350

Question: Which results are given for `CCOc1cc(CC(=O)N[C@@H](CC(C)C)c2ccccc2N2CCCCC2)ccc1C(=O)O` [repaglinide, Repaglinide]?
Answer: pH of solutions in which repaglinide was often more stable [1]: less than or equal to 9; solubility of repaglinide [2]: poorly soluble or insoluble
